Test results published in patent US4087540A, “Octahydro-N-[(trichloromethyl)thio]-naphthalenedicarboximides” (Sterling Drug Inc., priority 1977, dated 1978).

Assays:
fungus [1] = test: fungicidal activity (general); settings: for fungicidal activity: in words
From the text: (§1) In order to find a fungicide with high solubility in petroleum hydrocarbons, numerous N-trichloromethylthio compounds have been synthesized and tested for activity and solubility. […] Rather, activity is associated with certain structural features.

Candida albicans = test: minimum inhibitory concentration against Candida albicans; type: cell-based; settings: microorganism 7, Candida albicans
From the text: (§2) These properties appear to be associated with the octahydronaphthalene structure of the compounds. Thus when the anhydride VIII (Z=O) was converted to the corresponding N-[(trichloromethyl)thio]-imide (VIII, Z=N--S--CCl3) the surprising observation was made that the cyclized compound IC has about five times the fungicidal activity, and against staphylococcus aureus about 100 times the activity, of the uncyclized compound VIII (Z=N--S--CCl3) and that the latter compound had only one-fifth the solubility of compound IC. The solubility data and minimum inhibitory concentration against several microorganisms for these two compounds as well as the known fungicide Captan are presented in the following table.

Aspergillus niger = test: minimum inhibitory concentration against Aspergillus niger; type: cell-based; settings: microorganism 3, Aspergillus niger
From the text: as §2

[2] = solubility in mineral spirits; type: physicochemical; settings: VIII (Z=N--S--CCl3) vs IC
From the text: as §2

Penicillium glaucum = test: minimum inhibitory concentration against Penicillium glaucum; type: cell-based; settings: microorganism 2, Penicillium glaucum
From the text: as §2

Pullularia pullulans = test: minimum inhibitory concentration against Pullularia pullulans; type: cell-based; settings: microorganism 5, Pullularia pullulans
From the text: as §2

Staphylococcus aureus = test: minimum inhibitory concentration against Staphylococcus aureus; type: cell-based; settings: for Minimum Inhibitory Concentration (%): microorganism 1, Staphylococcus aureus
From the text: as §2

Saccharomyces cerevisiac = test: minimum inhibitory concentration against Saccharomyces cerevisiac; type: cell-based; settings: microorganism 6, Saccharomyces cerevisiac
From the text: as §2

Sclerophoma pityophila = test: minimum inhibitory concentration against Sclerophoma pityophila; type: cell-based; settings: microorganism 4, Sclerophoma pityophila
From the text: as §2

fungus [3] = settings: cited from earlier work; for properties as fungicidal additives to paints: Fette, Seifen, Anstrichmittel 1966
blue discoloration = settings: E. Hoffman and A. Saracz; cited from earlier work
[4] = cited from earlier work
[5] = type: physicochemical; settings: in words
From the text: as §1

[6] = B. A. Richardson; cited from earlier work

## O=C1C2C3c4ccccc4C(c4ccccc43)C2C(=O)N1SC(Cl)(Cl)Cl (centres unmarked)
Fungus [1]
  fungicidal activity: inactive

## O=C1Cc2ccccc2C(=O)N1SC(Cl)(Cl)Cl
Fungus [1]
  fungicidal activity: inactive

## CC(C)=CCCC1=CCC2C(=O)N(SC(Cl)(Cl)Cl)C(=O)C2C1 (centres unmarked) [VIII]
Candida albicans
  Minimum Inhibitory Concentration (%): 0.01%
Aspergillus niger
  Minimum Inhibitory Concentration (%): 0.01%
[2]
  solubility relative to compound IC: one-fifth
Penicillium glaucum
  Minimum Inhibitory Concentration (%): 0.005%
Pullularia pullulans
  Minimum Inhibitory Concentration (%): 0.005%
Staphylococcus aureus
  Minimum Inhibitory Concentration (%): 1%
Saccharomyces cerevisiac
  Minimum Inhibitory Concentration (%): 0.005%
Sclerophoma pityophila
  Minimum Inhibitory Concentration (%): 0.005%

## O=C1c2ccccc2C(=O)N1SC(F)(Cl)Cl [V]
Fungus [3]
  properties as fungicidal additives to paints: useful properties

## O=C1c2ccccc2C(=O)N1SC(Cl)(Cl)Cl [III]
Blue discoloration
  sufficiency of 1% to prevent blue discoloration: insufficient to prevent blue discoloration

## CC12CCC(C(=O)N(SC(Cl)(Cl)Cl)C1=O)C2(C)C (centres unmarked)
Fungus [1]
  fungicidal activity: inactive

## O=C1C2CCCCC2C(=O)N1SC(Cl)(Cl)Cl (centres unmarked) [IV]
[4]
  solubility in petroleum ether: 0.3%

## CC1(C)CCCC2=C1CC1C(=O)N(SC(Cl)(Cl)Cl)C(=O)C1C2 (centres unmarked) [IC, 1,2,3,4,5,6,7,8-octahydro-5,5-dimethyl-N-[(trichloromethyl)thio]-2,3-naphthalenedicarboximide]
Fungus [1]; IC vs VIII
  fungicidal activity relative to uncyclized compound VIII (Z=N--S--CCl3): about five
Fungus [1]
  fungicidal activity: excellent fungicidal activity
Candida albicans
  Minimum Inhibitory Concentration (%): 0.001%
Aspergillus niger
  Minimum Inhibitory Concentration (%): 0.01%
Penicillium glaucum
  Minimum Inhibitory Concentration (%): 0.001%
[5]
  solubility in petroleum hydrocarbons: good solubility in petroleum hydrocarbons
Pullularia pullulans
  Minimum Inhibitory Concentration (%): 0.001%
Staphylococcus aureus; IC vs VIII
  activity against staphylococcus aureus relative to uncyclized compound VIII (Z=N--S--CCl3): about 100 times
Staphylococcus aureus
  Minimum Inhibitory Concentration (%): 0.01%
Saccharomyces cerevisiac
  Minimum Inhibitory Concentration (%): 0.001%
Sclerophoma pityophila
  Minimum Inhibitory Concentration (%): 0.001%

## CC1(C)C2CC3C(=CCC4C(=O)N(SC(Cl)(Cl)Cl)C(=O)C43)C1C2 (centres unmarked) [IB, 1,2,3,4,4a,5,6,7-octahydro-2,2-dimethyl-N-[(trichloromethyl)thio]-1,3-methanonaphthalene-5,6-dicarboximide]
Fungus [1]
  fungicidal activity: excellent fungicidal activity
[5]
  solubility in petroleum hydrocarbons: good solubility in petroleum hydrocarbons

## CCCCCCCCCCCCCCCCC1CC(=O)N(SC(Cl)(Cl)Cl)C1=O (centres unmarked)
Fungus [1]
  fungicidal activity: inactive

## CC1=C2CCC(C)CC2C2C(=O)N(SC(Cl)(Cl)Cl)C(=O)C2C1 (centres unmarked) [IA, 1,2,3,5,6,7,8,8a-octahydro-4,7-dimethyl-N-[(trichloromethyl)-thio]-1,2-naphthalenedicarboximide]
Fungus [1]
  fungicidal activity: excellent fungicidal activity
[5]
  solubility in petroleum hydrocarbons: good solubility in petroleum hydrocarbons

## O=C1C2CC=CCC2C(=O)N1SC(Cl)(Cl)Cl (centres unmarked) [Captan]
Candida albicans
  Minimum Inhibitory Concentration (%): 0.01%
Aspergillus niger
  Minimum Inhibitory Concentration (%): 0.05%
Fungus [3]; owing to its low solubility in paints, B. A. Richardson
  fungicidal effectiveness in paints: practically ineffective
Penicillium glaucum
  Minimum Inhibitory Concentration (%): 0.01%
Pullularia pullulans
  Minimum Inhibitory Concentration (%): 0.005%
Staphylococcus aureus
  Minimum Inhibitory Concentration (%): 0.05%
[6]
  solubility in paints: low solubility

## CN(C)S(=O)(=O)N(SC(F)(Cl)Cl)c1ccccc1 [VI]
Fungus [3]
  properties as fungicidal additives to paints: useful properties
